Assays:
Type in all cases: in vivo
[1] = test system: barnyardgrass (Echinochloa crus-galli); test: Test A preemergence; conditions: for Plant response rating, Barnyardgrass: 125 g ai/ha, preemergence, 0 to 100 scale (0 no effect, 100 complete control); for Barnyardgrass plant response rating (0 to 100 scale): Preemergence, 500 g ai/ha, 0 is no effect, 100 is complete control
Method in brief: (§1)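 Preemergence directed soil spray on seeded pots, or postemergence application to plants 2–10 cm, one- to two-leaf. Solvent mixture non-phytotoxic, with surfactant. Scored ~10 d later, visually, 0–100 vs untreated.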

corn (Zea mays) [2] = test: Test A preemergence; conditions: for Plant response rating, Corn: 125 g ai/ha, preemergence, 0 to 100 scale (0 no effect, 100 complete control); for Corn plant response rating (0 to 100 scale): Preemergence, 500 g ai/ha, 0 is no effect, 100 is complete control
Method in brief: as §1

[3] = test system: crabgrass, large (Digitaria sanguinalis); test: Test A preemergence; conditions: for Plant response rating, Crabgrass, Large: 125 g ai/ha, preemergence, 0 to 100 scale (0 no effect, 100 complete control); for Crabgrass, Large plant response rating (0 to 100 scale): Preemergence, 500 g ai/ha, 0 is no effect, 100 is complete control
Method in brief: as §1

[4] = test system: giant foxtail (Setaria faberii); test: Test A preemergence; conditions: for Plant response rating, Foxtail, Giant: 125 g ai/ha, preemergence, 0 to 100 scale (0 no effect, 100 complete control); for Foxtail, Giant plant response rating (0 to 100 scale): Preemergence, 500 g ai/ha, 0 is no effect, 100 is complete control
Method in brief: as §1

[5] = test system: morningglory (Ipomoea spp.); test: Test A preemergence; conditions: for Plant response rating, Morningglory: 125 g ai/ha, preemergence, 0 to 100 scale (0 no effect, 100 complete control); for Morningglory plant response rating (0 to 100 scale): Preemergence, 500 g ai/ha, 0 is no effect, 100 is complete control
Method in brief: as §1

[6] = test system: pigweed (Amaranthus retroflexus); test: Test A preemergence; conditions: for Plant response rating, Pigweed: 125 g ai/ha, preemergence, 0 to 100 scale (0 no effect, 100 complete control); for Pigweed plant response rating (0 to 100 scale): Preemergence, 500 g ai/ha, 0 is no effect, 100 is complete control
[7] = test system: velvetleaf (Abutilon theophrasti); test: Test A preemergence; conditions: for Plant response rating, Velvetleaf: 125 g ai/ha, preemergence, 0 to 100 scale (0 no effect, 100 complete control); for Velvetleaf plant response rating (0 to 100 scale): Preemergence, 500 g ai/ha, 0 is no effect, 100 is complete control
Method in brief: as §1

[8] = test system: wheat (Triticum aestivum); test: Test A preemergence; conditions: for Plant response rating, Wheat: 125 g ai/ha, preemergence, 0 to 100 scale (0 no effect, 100 complete control); for Wheat plant response rating (0 to 100 scale): Preemergence, 500 g ai/ha, 0 is no effect, 100 is complete control
Method in brief: as §1

[9] = test system: barnyardgrass (Echinochloa crus-galli); test: Test A postemergence
Method in brief: as §1

corn (Zea mays) [10] = test: Test A postemergence
Method in brief: as §1

[11] = test system: crabgrass, large (Digitaria sanguinalis); test: Test A postemergence
Method in brief: as §1

[12] = test system: giant foxtail (Setaria faberii); test: Test A postemergence
Method in brief: as §1

[13] = test system: morningglory (Ipomoea spp.); test: Test A postemergence
Method in brief: as §1

[14] = test system: pigweed (Amaranthus retroflexus); test: Test A postemergence
Method in brief: as §1

[15] = test system: velvetleaf (Abutilon theophrasti); test: Test A postemergence
Method in brief: as §1

[16] = test system: wheat (Triticum aestivum); test: Test A postemergence
Method in brief: as §1

[17] = test system: barnyardgrass (Echinochloa crus-galli); test: Test B flooded paddy test; conditions: Flood, 0 to 100 scale where 0 is no effect and 100 is complete control, 13 to 15 d
Method in brief: (§2)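 Plants at 2-leaf stage flooded to 3 cm above soil, with compounds applied directly to paddy water and that depth maintained. Plants kept in greenhouse 13–15 d. Visual rating versus controls on a 0 (no effect) to 100 (complete control) scale.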

[18] = test system: ducksalad (Heteranthera limosa); test: Test B flooded paddy test; conditions: Flood, 0 to 100 scale where 0 is no effect and 100 is complete control, 13 to 15 d
Method in brief: as §2

rice (Oryra sativa) = test: Test B flooded paddy test; conditions: Flood, 0 to 100 scale where 0 is no effect and 100 is complete control, 13 to 15 d
Method in brief: as §2

[19] = test system: sedge, umbrella (small-flower umbrella sedge, Cyperus difformis); test: Test B flooded paddy test; conditions: Flood, 0 to 100 scale where 0 is no effect and 100 is complete control, 13 to 15 d
Method in brief: as §2

[20] = 500 g ai/ha, postemergence, 0 to 100 scale, 0 no effect, 100 complete control
[21] = Postemergence, 125 g ai/ha, visual injury, 0 to 100 scale (0 no effect, 100 complete control), approx. 10 d

Structure (SMILES) | Plant response rating, Barnyardgrass [1] | Barnyardgrass plant response rating (0 to 100 scale) [1] | Plant response rating, Corn (corn (Zea mays) [2]) | Corn plant response rating (0 to 100 scale) (corn (Zea mays) [2]) | Plant response rating, Crabgrass, Large [3] | Crabgrass, Large plant response rating (0 to 100 scale) [3] | Plant response rating, Foxtail, Giant [4] | Foxtail, Giant plant response rating (0 to 100 scale) [4] | Plant response rating, Morningglory [5] | Morningglory plant response rating (0 to 100 scale) [5] | Plant response rating, Pigweed [6] | Pigweed plant response rating (0 to 100 scale) [6] | Plant response rating, Velvetleaf [7] | Velvetleaf plant response rating (0 to 100 scale) [7] | Plant response rating, Wheat [8] | Wheat plant response rating (0 to 100 scale) [8] | Plant response rating, Barnyardgrass [9, 20] | Plant response rating, Barnyardgrass [9, 21] | Plant response rating, Corn (corn (Zea mays) [10]; [20]) | Plant response rating, Corn (corn (Zea mays) [10]; [21]) | other results
Nc1cccc(C2CNC(=O)C2C(=O)Nc2cccc(F)c2F)c1 (stereo not drawn) [Compound 354] | 0 | 0 | 0 | 0 | 0 | 0 | 0 | 0 | 0 | 0 | 0 | 0 | 0 | 0 | 0 | 0 | 0 | 0 | 0 | 0 | Plant response rating, Crabgrass, Large [11, 20]: 0; Plant response rating, Crabgrass, Large [11, 21]: 0; Plant response rating, Foxtail, Giant [12, 20]: 0; Plant response rating, Foxtail, Giant [12, 21]: 0; Plant response rating, Morningglory [13, 20]: 0; Plant response rating, Morningglory [13, 21]: 0; Plant response rating, Pigweed [14, 20]: 0; Plant response rating, Pigweed [14, 21]: 0; Plant response rating, Velvetleaf [15, 20]: 0; Plant response rating, Velvetleaf [15, 21]: 0; Plant response rating, Wheat [16, 20]: 0; Plant response rating, Wheat [16, 21]: 0; Plant response rating, Barnyardgrass ([17]; 250 g ai/ha): 0; Plant response rating, Ducksalad ([18]; 250 g ai/ha): 0; Plant response rating, Rice (rice (Oryra sativa); 250 g ai/ha): 20; Plant response rating, Sedge, Umbrella ([19]; 250 g ai/ha): 20
Cn1nccc1NC(=O)C1C(=O)NCC1c1ccc(F)c(F)c1 (racemic) [Compound 362] | 0 | 0 | 0 | 0 | 0 | 0 | 0 | 0 | 0 | 0 | 0 | 0 | 0 | 0 | 0 | 0 | 0 | 0 | 0 | 0 | Plant response rating, Crabgrass, Large [11, 20]: 0; Plant response rating, Crabgrass, Large [11, 21]: 0; Plant response rating, Foxtail, Giant [12, 20]: 0; Plant response rating, Foxtail, Giant [12, 21]: 0; Plant response rating, Morningglory [13, 20]: 0; Plant response rating, Morningglory [13, 21]: 0; Plant response rating, Pigweed [14, 20]: 0; Plant response rating, Pigweed [14, 21]: 0; Plant response rating, Velvetleaf [15, 20]: 0; Plant response rating, Velvetleaf [15, 21]: 0; Plant response rating, Wheat [16, 20]: 0; Plant response rating, Wheat [16, 21]: 0; Plant response rating, Barnyardgrass ([17]; 250 g ai/ha): 0; Plant response rating, Ducksalad ([18]; 250 g ai/ha): 0; Plant response rating, Rice (rice (Oryra sativa); 250 g ai/ha): 0; Plant response rating, Sedge, Umbrella ([19]; 250 g ai/ha): 0
O=C1NCC(c2ccc(-c3ccccc3)cc2)C1C(=O)Nc1cccc(F)c1F (racemic) [Compound 366] | 0 | 0 | 0 | 0 | 0 | 0 | 0 | 0 | 0 | 0 | 0 | 0 | 0 | 0 | 0 | 0 | 0 | 0 | 0 | 0 | Plant response rating, Crabgrass, Large [11, 20]: 0; Plant response rating, Crabgrass, Large [11, 21]: 0; Plant response rating, Foxtail, Giant [12, 20]: 0; Plant response rating, Foxtail, Giant [12, 21]: 0; Plant response rating, Morningglory [13, 20]: 0; Plant response rating, Morningglory [13, 21]: 0; Plant response rating, Pigweed [14, 20]: 0; Plant response rating, Pigweed [14, 21]: 0; Plant response rating, Velvetleaf [15, 20]: 0; Plant response rating, Velvetleaf [15, 21]: 0; Plant response rating, Wheat [16, 20]: 0; Plant response rating, Wheat [16, 21]: 0; Plant response rating, Barnyardgrass ([17]; 1000 g ai/ha): 0; Plant response rating, Ducksalad ([18]; 1000 g ai/ha): 0; Plant response rating, Rice (rice (Oryra sativa); 1000 g ai/ha): 0; Plant response rating, Sedge, Umbrella ([19]; 1000 g ai/ha): 0
O=C1NCC(c2ccc(-c3ccccc3)cc2)C1C(=O)Nc1ccccc1F (racemic) [Compound 365] | 0 | 0 | 0 | 0 | 0 | 0 | 0 | 0 | 0 | 0 | 0 | 0 | 0 | 0 | 0 | 0 | 0 | 0 | 0 | 0 | Plant response rating, Crabgrass, Large [11, 20]: 0; Plant response rating, Crabgrass, Large [11, 21]: 0; Plant response rating, Foxtail, Giant [12, 20]: 0; Plant response rating, Foxtail, Giant [12, 21]: 0; Plant response rating, Morningglory [13, 20]: 0; Plant response rating, Morningglory [13, 21]: 0; Plant response rating, Pigweed [14, 20]: 0; Plant response rating, Pigweed [14, 21]: 0; Plant response rating, Velvetleaf [15, 20]: 0; Plant response rating, Velvetleaf [15, 21]: 0; Plant response rating, Wheat [16, 20]: 0; Plant response rating, Wheat [16, 21]: 0; Plant response rating, Barnyardgrass ([17]; 1000 g ai/ha): 0; Plant response rating, Ducksalad ([18]; 1000 g ai/ha): 0; Plant response rating, Rice (rice (Oryra sativa); 1000 g ai/ha): 0; Plant response rating, Sedge, Umbrella ([19]; 1000 g ai/ha): 0

From patent US12077503B2, “Substituted cyclic amides and their use as herbicides” (FMC CORPORATION, priority 2015, dated 2024)
